Measured values as given in patent US12472175B2, “Methods of treating venetoclax-resistant acute myeloid leukemia” (OREGON HEALTH & SCIENCE UNIVERSITY, priority 2019, dated 2025).

Legend:
[1] = system: MOLM-13 and MV4;11 cells with TP53 and BAX KOs; test: Small molecule inhibitor panel screen, changes common to modified MOLM-13 and MV4;11 cells; type: cell-based, Human; settings: for sensitivity to NTRK/ALK/ROS1 inhibitors: cells with TP53 KO; for change in drug sensitivity common to modified MOLM-13 and MV4;11 cells: TP53 and BAX KOs relative to non-targeting control; for sensitivity to FLT3 inhibitors: TP53 inactivated MV4;11 and MOLM-13 cells
Method: Small-molecule inhibitors, purchased from LC Laboratories (Woburn, Mass., USA) and Selleck Chemicals (Houston, Tex., USA), were reconstituted in DMSO and stored at −80° C. Inc. Inhibitors were distributed into 384-well plates prepared with a single agent/well in a 7-point concentration series ranging from 10 μM to 0.04 μM for each drug. […] After three days of culture at 37° C. in 5% CO2, MTS reagent (CellTiter96 AQueous One; Promega Madison, Wis., USA) was added, optical density was measured at 490 nm, raw absorbance values were adjusted to a reference blank value, and then used to determine cell viability (normalized to untreated control wells). Prizm software(GraphPad) was used to perform non-linear regression analyses on normalized values for the determination of IC50.
FIG. 7A. MOLM-13 and MV4;11 cells, transduced with indicated sgRNAs/Cas9 viruses, were screened with a panel of inhibitors targeting various molecular pathways and assessed using the cell survival method described in FIG. 2A.
FIG. 7B. Analyses of FLT3 inhibitor sensitivities, in MOLM-13 and MV4;11 parental and Crispr-modified cells, as indicated. Drug sensitivity was measured as described in FIG. 2A, with IC50 measured in triplicate.

MOLM-13 cells [2] = test: Cell viability (MTS) drug sensitivity assay in MOLM-13 cells transduced with sgRNA/Cas9 viruses; type: cell-based, Human
Method: (§1) Small-molecule inhibitors, purchased from LC Laboratories (Woburn, Mass., USA) and Selleck Chemicals (Houston, Tex., USA), were reconstituted in DMSO and stored at −80° C. Inc. Inhibitors were distributed into 384-well plates prepared with a single agent/well in a 7-point concentration series ranging from 10 μM to 0.04 μM for each drug. The final concentration of DMSO was ≤1.1% in all wells. Cells were seeded into 384-well assay plates at 1,000 cells/well in RPMI-1640 media supplemented with fetal bovine serum (15%), L-glutamine, penicillin-streptomycin and antimycotic. After three days of culture at 37° C. in 5% CO2, MTS reagent (CellTiter96 AQueous One; Promega Madison, Wis., USA) was added, optical density was measured at 490 nm, raw absorbance values were adjusted to a reference blank value, and then used to determine cell viability (normalized to untreated control wells). Prizm software(GraphPad) was used to perform non-linear regression analyses on normalized values for the determination of IC50.
FIG. 2. A. Confirmation of genes conferring venetoclax resistance in MOLM-13 and MV4;11 cells and correlations with changes in apoptotic gene transcription in AML patients. MOLM-13 (FIG. 2A) or MV4;11 (FIG. 2B) cells were transduced with lentiviruses carrying single sgRNA/Cas9 constructs targeting TP53, BAX, PMAIP1, FAU or control (non-targeting; NT_g). 10 days post transduction, venetoclax sensitivity was measured in triplicate by colorimetric MTS assay using a 7-point concentration range (4 nM to 10 μM). Percentages of viable cells, after normalization to untreated controls, were fit using non-linear regression analyses; mean and standard errors are shown. MOLM-13P, parental MOLM-13 cells. MV4;11P, parental MV4;11 cells. FIG. 2C. Histogram (log 2 scale) summarizing changes in venetoclax sensitivity in parental MOLM-13 (black shaded), parental MV4;11 cells (grey shaded) or cells transduced with indicated sgRNA/Cas9 viruses., IC50 values were calculated by non-linear regression analyses in the cell viability assay described in panel A. FIG. 2D. […]

[3] = system: primary AML patient cells; test: Ex vivo viability (MTS) drug sensitivity in primary AML patient samples (Beat AML); type: cell-based
Method: as §1
FIG. 3. Venetoclax sensitivity in AML patients inversely correlates with TP53 mutations and low expression of TP53 and BAX. 3A. Venetoclax (VEN) sensitivity in primary AML patient samples was measured in a viability assay across a concentration series ranging from 10 nM to 10 μM. AUC was determined for each sample and plotted relative to TP53 mutant status or TP53 expression levels. LE and HE denote lowest and highest quartile expression values, respectively. […] Within TP53 mutant groups, circles, triangles and square symbols denote loss of function (LOF), gain of function (GOF), and splice variants correspondingly. 3B. Correlation between gene expression levels from AML patient samples for TP53, BAX, PMAIP1 and TMEM14A to the respective venetoclax sensitivities represented by AUC (n=442; [36]). k, slope values generated by linear regression; r, Spearman coefficient; ****, p<0.0001; ns, not significant.
FIG. 12. Selected ex vivo drug sensitivity in AML patients' cells with mutant TP53 mutations. Histogram representing drug sensitivity, measured in primary AML patient cells ex vivo, in a viability MTS assay across a concentration series ranging from 10 nM to 10 μM, using 10,000 cells per well, in triplicates. […] Red bars denote median IC50 value.
(§2) FIG. 13. Analyses of Venetoclax sensitivities in CLL and AML patient cohorts ex vivo. Scatter plot of IC50 values are indicated. Mann-Whitney test was performed on IC50 values to ascertain statistical differences of mean. ***, p<0.001.

MOLM-13 cells [4] = test: Cell cycle profile by flow cytometry; type: cell-based, Human; settings: TP53 KO cells, 100 nM entrectinib o/n
Method: FIG. 11. Entrectinib arrests cells with loss-of-function alleles for TP53 in G1. (FIG. 11A). Flow cytometry analyses of cells treated with 100 nM entrectinib o/n or vehicle alone. (FIG. 11B). Histogram representing cell cycle profiles of MOLM-13 cells transduced with sgRNAs/Cas9 viruses for non-targeting sgRNA (NT_g, n=3), TP53 sgRNA (TP53_g, n=3) or BAX (n=1); mean and standard deviation are shown where appropriate. (FIG. 11C). Cell viability assay assessing the sensitivity of the combination of entrectinib and venetoclax relative to sensitivities for each single agent on MOLM-13 cells transduced with sgRNAs/Cas9 viruses for TP53 sgRNA. Data were fit to a non-linear regression analysis with means and standard errors.

NTRK = test: Western blot of NTRK and downstream MAPK phosphorylation; type: cell-based, Human; settings: TP53 KO MOLM-13, entrectinib 100 nM overnight; not in control or parental cells
Method: Whole cells extracts from MOLM-13 or MV4;11 cells were prepared using 20 mM Tris-HCl (pH 7.5), 150 mM NaCl, 1 mM Na EDTA, 1 mM EGTA, 1% Triton, 2.5 mM sodium pyrophosphate, 1 mM beta-glycerophosphate, 1 mM Na3VO4, 1 μg/ml leupeptin (Cell Signalling), 1 mM PMSF, […] (Roche) and phosphatase inhibitor cocktail (Sigma-Aldrich). Proteins were resolved on 5-15% gradient gels (Biorad), transferred to PVDF membrane (Amersham) and subjected to immunoblotting using primary, followed by corresponding HRP-conjugated secondary antibodies (Promega), or biotinylated secondary antibody followed by streptavidin conjugated to HRP(TRK antibodies).
FIG. 7E. Western blot analyses of proteins extracted from MOLM-13 parental and MOLM-13 transduced with TP53 sgRNA/Cas9 viruses and treated overnight with venetoclax (100 nM), entrectinib (100 nM) or DMSO (vehicle), and identified with antisera to pan NTRK, phosphorylated NTRK, phosphorylated ERK1/2, ERK1/2, phosphorylated AKT, AKT and GAPDH.

CLL patient specimens = test: Ex vivo venetoclax sensitivity in CLL patient cohort; type: cell-based
Method: as §1, §2

MOLM-13 cells [5] = test: Mitochondrial membrane potential (JC-1); type: cell-based, Human; settings: TP53 and BAX mutant cells, CCCP alone
Method: Membrane depolarization was induced with CCCP. Cells were treated with 100 nM venetoclax or DMSO and with or without CCCP for 2 hrs prior to addition of the dye and flow cytometry.
FIG. 5. […] Histogram of a representative mitophagy experiment (n=2). […] FIG. 5B. […] FIGS. 5C, 5D. […] FIG. 5E. […] FIG. 5F. Cell viability assay in response to elesclomol.

MOLM-13 cells [6] = settings: cells with inactivation of TP53 and BAX, regardless of venetoclax treatment
Method: Cells were loaded in complete medium with 100 nM mitophagy Dye (Mitophagy Detection Kit, Dojindo Molecular Technologies) and 25 nM MitoTracker Deep Red, incubated for 30 min at 37° C. with serum free RPMI, washed and treated with DMSO or 100 nM venetoclax in DMSO for 2 hrs. […] Cells were washed, loaded with lyso dye for 30 min and observed for fluorescence. Mitophagy was detected as intense fluorescence of mitodye upon fusion with lysosomes, detected with lyso dye (488 nm(Ex), 550 nm(Em). 10,000 cells were collected for analysis using a BD FACS Arian™III on 10,000 acquired events. The data were analyzed post acquisition using FlowJo software (Tree Star, Ashland, Oreg., USA). 10,000 cells were acquired using channels 405-2-A(lyso dye), 561-3-A(Mitophagy dye) and 640-1-A(MitoTracker Dye).
Histogram of a representative mitophagy experiment (n=2). […] Histogram of a representative experiment from C (n=2) with 10,000 cells analyzed per sample.

[7] = sensitivity printed as IC50≥0.5 μM

For `Cc1cc(Nc2nc(N[C@@H](C)c3ncc(F)cn3)ncc2Cl)n[nH]1` [AZD1480], the “sensitivity to NTRK/ALK/ROS1 inhibitors” value [1] was “sustained gain of sensitivity”.

In the case of `Cc1c2c(nn1C)CSCc1cc(n(C)n1)CSc1cc(c3ccccc3c1)OCCCc1c(C(=O)O)n(C)c3c-2c(Cl)ccc13` [AZD5991], the “sensitivity to MCL1 inhibitor, TP53 KO” value (MOLM-13 cells [2]; TP53 KO MOLM13 cells) is reported as “significantly diminished”.

In the case of `CS(=O)(=O)N1CCN(Cc2cc3nc(-c4cccc5[nH]ncc45)nc(N4CCOCC4)c3s2)CC1` [GDC-0941], the “change in drug sensitivity common to modified MOLM-13 and MV4;11 cells” value (“change in drug sensitivity common” below) [1] is reported as “increased”.

In the case of `COc1ccc(COc2ccc(Cc3cnc(N)nc3N)cc2OC)cc1` [GW-2580], the “sensitivity to NTRK/ALK/ROS1 inhibitors” value [1] is reported as “sustained gain of sensitivity”.

For `O=S(=O)(NCCNC/C=C/c1ccc(Br)cc1)c1cccc2cnccc12` [H-89], the “change in sensitivity between BAX-inactivated MV4;11 and MOLM-13 cells” value ([1]; BAX-inactivated, also overlapped in TP53 inactivated cells) was “concordant changes”.

`Oc1cccc(-c2nc(N3CCOCC3)c3oc4ncccc4c3n2)c1` [PI-103] was tested, and the “change in drug sensitivity common” value [1] was “increased”.

For `COCCn1c2c([n+](Cc3cnccn3)c1C)C(=O)c1ccccc1C2=O` [YM-155], the “change in drug sensitivity common” value [1] was “increased”.

With `CC1(COc2ccc3c(c2)ncn3-c2ccc3cccc(N4CCC(N)CC4)c3n2)COC1` [crenolanib] the “sensitivity to FLT3 inhibitors” value [1] was “loss of sensitivity”.

`C[C@@H](Oc1cc(-c2cnn(C3CCNCC3)c2)cnc1N)c1c(Cl)ccc(F)c1Cl` [crizotinib] was tested, and the “sensitivity to NTRK/ALK/ROS1 inhibitors” value [1] was “sustained gain of sensitivity”.

In the case of `CN(NC(=O)CC(=O)NN(C)C(=S)c1ccccc1)C(=S)c1ccccc1` [elesclomol], the “cell viability in response to elesclomol” value (MOLM-13 cells [2]; TP53 and BAX KO cells) is reported as “still susceptible to cell death”.

`CN1CCN(c2ccc(C(=O)Nc3n[nH]c4ccc(Cc5cc(F)cc(F)c5)cc34)c(NC3CCOCC3)c2)CC1` [entrectinib] was tested, and the “sensitivity to NTRK/ALK/ROS1 inhibitors” value [1] was “sustained gain of sensitivity”, the “ex vivo drug sensitivity in AML patient cells with TP53 mutations” value ([3]; several patient specimens, 10 nM to 10 μM) was “relatively high sensitivity” and the cell cycle effect (MOLM-13 cells [4]) was “G1 cell cycle blockade”. For the same compound, the “phosphorylation of NTRK and downstream MAPK signaling” value (NTRK) was “significant decreases in phosphorylation”.

With `O=C(Nc1cnn2ccc(N3CCC[C@@H]3c3cc(F)ccc3F)nc12)N1CC[C@H](O)C1` [larotrectinib] the “sensitivity to selective NTRK inhibitor” value (MOLM-13 cells [2]; TP53 KO) was “profound gain of sensitivity”.

With `CNC(=O)c1cc(Oc2ccc(NC(=O)Nc3ccc(Cl)c(C(F)(F)F)c3)cc2)ccn1` [sorafenib] the “sensitivity to FLT3 inhibitors” value [1] was “loss of sensitivity”.

With `CC1(C)CCC(CN2CCN(c3ccc(C(=O)NS(=O)(=O)c4ccc(NCC5CCOCC5)c([N+](=O)[O-])c4)c(Oc4cnc5[nH]ccc5c4)c3)CC2)=C(c2ccc(Cl)cc2)C1` [venetoclax] the IC50 ([3]; Homo sapiens, AML, 289 patients, read-out: Median IC50, venetoclax sensitivity ex vivo, AML cohort) was 100 nM, the “median IC50 for AML relative to that for CLL” value ([3]; ex vivo patient samples, Beat AML cohort) was 14 times and the “share of AML specimens exhibiting sensitivity to venetoclax” value [3, 7] was “about 40%”. For the same compound, the IC50 (CLL patient specimens; Homo sapiens, CLL, 141 patients, read-out: Median IC50, venetoclax sensitivity ex vivo, CLL cohort) was 1400 nM and the “share of CLL specimens exhibiting sensitivity to venetoclax” value (CLL patient specimens; [7]) was about 55%.

“carboyl cyanide m-chlorophenyl hydrazine [CCCP]” was tested, and the “loss of mitochondrial membrane potential in response to uncoupler” value (MOLM-13 cells [5]) was “less likely to lose mitochondrial membrane potential” and the “mitophagy in response to mitochondrial uncoupler” value (MOLM-13 cells [6]) was “less likely to undergo mitophagy or mitochondrial death”.
